Measurements: ChEMBL document CHEMBL4024754, “Development of Potent, Protease-Resistant Agonists of the Parathyroid Hormone Receptor with Broad β Residue Distribution” (J Med Chem, 2017)
Numbered stars: 1 amine (or outer) side, 2 acyl side, 3 side chain; on linkers, the order of the positions; unused ones are H or OH. Square brackets hold non-standard residues; d marks the D form. Peptide text beside a SMILES is read from it. * marks the point of attachment. NH(1S,2S-2-CONH2-cPent) = NC(=O)[C@H]1CCC[C@@H]1N*; β3hW = N[C@H](CC(=O)O)Cc1c[nH]c2ccccc12; ACPC(1S,2S) = N[C@H]1CCC[C@@H]1C(=O)*; X1 = O=C([C@H]1CCC[C@@H]1N[*:1])[*:2]; X2 = O=C([C@H]1CNC[C@@H]1N[*:1])[*:2]; hArg = N=C(N)NCCCC[C@H](N)C(=O)O; β3hE = N[C@@H](CCC(=O)O)CC(=O)O; β3hF = N[C@H](CC(=O)O)Cc1ccccc1; β3hK = NCCCC[C@H](N)CC(=O)O; β3hM = CSCC[C@H](N)CC(=O)O; β3hD = NC(CC(=O)O)CC(=O)O; Aib = CC(C)(N)C(=O)O

What was measured:
[1] = target: T1, Parathyroid hormone/parathyroid hormone-related peptide receptor (Homo sapiens, UniProt Q03431); test: Agonist activity at human PTH1 receptor expressed in human GP2.3 cells assessed as induction of cAMP after 12 to 20 mins by luciferase reporter gene assay; format: functional, cell-based; settings: read-out: EC50
T1 sequence (Q03431 whole entry): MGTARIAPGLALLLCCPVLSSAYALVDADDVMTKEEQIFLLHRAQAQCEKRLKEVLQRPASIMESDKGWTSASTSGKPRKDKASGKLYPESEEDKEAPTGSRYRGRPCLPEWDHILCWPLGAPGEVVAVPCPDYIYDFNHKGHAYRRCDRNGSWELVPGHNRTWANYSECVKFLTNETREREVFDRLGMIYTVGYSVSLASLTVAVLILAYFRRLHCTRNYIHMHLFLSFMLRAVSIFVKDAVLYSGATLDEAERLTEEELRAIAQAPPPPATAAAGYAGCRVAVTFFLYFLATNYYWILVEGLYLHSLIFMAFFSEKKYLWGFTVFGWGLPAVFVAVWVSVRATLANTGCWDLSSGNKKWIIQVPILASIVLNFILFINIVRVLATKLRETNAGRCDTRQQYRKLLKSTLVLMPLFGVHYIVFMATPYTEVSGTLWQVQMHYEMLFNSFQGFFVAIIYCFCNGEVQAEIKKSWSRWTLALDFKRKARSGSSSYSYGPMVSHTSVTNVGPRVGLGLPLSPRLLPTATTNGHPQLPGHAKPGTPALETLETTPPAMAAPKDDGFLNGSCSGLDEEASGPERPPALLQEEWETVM

[2] = target: T2, Parathyroid hormone/parathyroid hormone-related peptide receptor (Homo sapiens) (UniProt Q03431); test: Agonist activity at human PTH1 receptor expressed in human GP2.3 cells assessed as induction of cAMP after 12 to 20 mins by luciferase reporter gene assay relative to PTH(1 to 34 residues)-NH2; format: functional, cell-based
T2 sequence (whole entry): T1 sequence (Q03431 whole entry)

SMILES | EC50 [1] [nM] | fold change (FC) [2]
CSCC[C@@H](CC(=O)N[C@@H](CCCNC(=N)N)C(=O)N[C@@H](CCCNC(=N)N)C(=O)N[C@H](C(=O)N[C@@H](CCC(=O)O)CC(=O)N[C@@H](Cc1c[nH]c2ccccc12)C(=O)N[C@@H](CC(C)C)C(=O)N[C@@H](CCCNC(=N)N)C(=O)N[C@@H](CCCCN)CC(=O)N[C@@H](CCCCN)C(=O)N[C@@H](CC(C)C)C(=O)N[C@@H](CCC(N)=O)C(=O)N[C@@H](CC(=O)O)CC(=O)N[C@H](C(=O)N[C@@H](Cc1cnc[nH]1)C(=O)N[C@@H](CC(N)=O)C(=O)N[C@H](CC(N)=O)Cc1ccccc1)C(C)C)C(C)C)NC(=O)[C@H](CO)NC(=O)[C@H](CC(N)=O)NC(=O)[C@H](CC(C)C)NC(=O)C[C@H](Cc1c[nH]c2ccccc12)NC(=O)[C@H](CCCCN)NC(=O)[C@H](C)NC(=O)[C@H](CCCCNC(=N)N)NC(=O)[C@H](CCC(N)=O)NC(=O)[C@H](Cc1cnc[nH]1)NC(=O)[C@H](CCSC)NC(=O)[C@H]1CCC[C@@H]1NC(=O)[C@H](CCC(N)=O)NC(=O)[C@H]1CCC[C@@H]1NC(=O)[C@H](CCC(=O)O)NC(=O)C(C)(C)NC(=O)[C@@H](NC(=O)[C@H]1CCC[C@@H]1N)C(C)C ({ACPC(1S,2S)}-V[Aib]E[X1]Q[X1]MHQ[hArg]AK[β3hW]LNS[β3hM]RRV[β3hE]WLR[β3hK]KLQ[β3hD]VHN[β3hF]-NH2) | 0.79 | 9.7
CC[C@H](C)[C@H](NC(=O)[C@H](CCC(=O)O)NC(=O)C(C)(C)NC(=O)[C@@H](NC(=O)[C@H]1CCC[C@@H]1N)C(C)C)C(=O)N[C@@H](CCC(N)=O)C(=O)N[C@H]1CCC[C@@H]1C(=O)N[C@@H](CCSC)C(=O)N[C@@H](Cc1cnc[nH]1)C(=O)N[C@@H](CCC(N)=O)C(=O)N[C@@H](CCCCNC(=N)N)C(=O)N[C@@H](C)C(=O)N[C@@H](CCCCN)C(=O)N[C@H](CC(=O)N[C@@H](CC(C)C)C(=O)N[C@@H](CC(N)=O)C(=O)N[C@@H](CO)C(=O)N[C@@H](CCSC)CC(=O)N[C@@H](CCCNC(=N)N)C(=O)N[C@@H](CCCNC(=N)N)C(=O)N[C@H](C(=O)N[C@@H](CCC(=O)O)CC(=O)N[C@@H](Cc1c[nH]c2ccccc12)C(=O)N[C@@H](CC(C)C)C(=O)N[C@@H](CCCNC(=N)N)C(=O)N[C@@H](CCCCN)CC(=O)N[C@@H](CCCCN)C(=O)N[C@@H](CC(C)C)C(=O)N[C@@H](CCC(N)=O)C(=O)N[C@@H](CC(=O)O)CC(=O)N[C@H](C(=O)N[C@@H](Cc1cnc[nH]1)C(=O)N[C@@H](CC(N)=O)C(=O)N[C@H](CC(N)=O)Cc1ccccc1)C(C)C)C(C)C)Cc1c[nH]c2ccccc12 ({ACPC(1S,2S)}-V[Aib]EIQ[X1]MHQ[hArg]AK[β3hW]LNS[β3hM]RRV[β3hE]WLR[β3hK]KLQ[β3hD]VHN[β3hF]-NH2) | 0.83 | 10
CSCC[C@@H](CC(=O)N[C@@H](CCC(=O)O)C(=O)N[C@@H](CCCNC(=N)N)C(=O)N[C@H](C(=O)N[C@@H](CCC(=O)O)CC(=O)N[C@@H](Cc1c[nH]c2ccccc12)C(=O)N[C@@H](CC(C)C)C(=O)N[C@@H](CCCNC(=N)N)C(=O)N[C@@H](CCCCN)CC(=O)N[C@@H](CCCCN)C(=O)N[C@@H](CC(C)C)C(=O)N[C@@H](CCC(N)=O)C(=O)N[C@@H](CC(=O)O)CC(=O)N[C@H](C(=O)N[C@@H](Cc1cnc[nH]1)C(=O)N[C@@H](CC(N)=O)C(=O)N[C@H](CC(N)=O)Cc1ccccc1)C(C)C)C(C)C)NC(=O)[C@H](CO)NC(=O)[C@H](CC(N)=O)NC(=O)[C@H](CC(C)C)NC(=O)C[C@H](Cc1c[nH]c2ccccc12)NC(=O)[C@H](CCCCN)NC(=O)CNC(=O)[C@H](CC(C)C)NC(=O)[C@H](CC(N)=O)NC(=O)[C@H](Cc1cnc[nH]1)NC(=O)[C@H](CCSC)NC(=O)[C@H]1CCC[C@@H]1NC(=O)[C@H](CCC(N)=O)NC(=O)[C@H]1CCC[C@@H]1NC(=O)[C@H](CCC(=O)O)NC(=O)[C@H](CO)NC(=O)[C@@H](NC(=O)[C@H]1CCC[C@@H]1N)C(C)C ({ACPC(1S,2S)}-VSE[X1]Q[X1]MHNLGK[β3hW]LNS[β3hM]ERV[β3hE]WLR[β3hK]KLQ[β3hD]VHN[β3hF]-NH2) | 167 | 2050
CC[C@H](C)[C@H](NC(=O)[C@H](CCC(=O)O)NC(=O)C(C)(C)NC(=O)[C@@H](NC(=O)[C@H]1CCC[C@@H]1N)C(C)C)C(=O)N[C@@H](CCC(N)=O)C(=O)N[C@H]1CCC[C@@H]1C(=O)N[C@@H](CCSC)C(=O)N[C@@H](Cc1cnc[nH]1)C(=O)N[C@@H](CCC(N)=O)C(=O)N[C@@H](CCCCNC(=N)N)C(=O)N[C@@H](C)C(=O)N[C@@H](CCCCN)C(=O)N[C@H]1CCC[C@@H]1C(=O)N[C@@H](CC(C)C)C(=O)N[C@@H](CC(N)=O)C(=O)N[C@@H](CO)C(=O)N[C@H]1CCC[C@@H]1C(=O)N[C@@H](CCCNC(=N)N)C(=O)N[C@@H](CCCNC(=N)N)C(=O)N[C@H](C(=O)N[C@H]1CNC[C@@H]1C(=O)N[C@@H](Cc1c[nH]c2ccccc12)C(=O)N[C@@H](CC(C)C)C(=O)N[C@@H](CCCNC(=N)N)C(=O)N[C@H]1CNC[C@@H]1C(=O)N[C@@H](CCCCN)C(=O)N[C@@H](CC(C)C)C(=O)N[C@@H](CCC(N)=O)C(=O)N[C@H]1CCC[C@@H]1C(=O)N[C@H](C(=O)N[C@@H](Cc1cnc[nH]1)C(=O)N[C@@H](CC(N)=O)C(=O)N[C@H]1CCC[C@@H]1C(N)=O)C(C)C)C(C)C ({ACPC(1S,2S)}-V[Aib]EIQ[X1]MHQ[hArg]AK[X1]LNS[X1]RRV[X2]WLR[X2]KLQ[X1]VHN-{NH(1S,2S-2-CONH2-cPent)}) | 1.8 | 22
CC[C@H](C)[C@H](NC(=O)[C@H](CCC(=O)O)NC(=O)[C@H](C)NC(=O)[C@@H](NC(=O)[C@H](C)N)C(C)C)C(=O)N[C@@H](CCC(N)=O)C(=O)N[C@@H](CC(C)C)C(=O)N[C@@H](CCSC)C(=O)N[C@@H](Cc1cnc[nH]1)C(=O)N[C@@H](CCC(N)=O)C(=O)N[C@@H](CCCCNC(=N)N)C(=O)N[C@@H](C)C(=O)N[C@@H](CCCCN)C(=O)N[C@@H](Cc1c[nH]c2ccccc12)C(=O)N[C@@H](CC(C)C)C(=O)N[C@@H](CC(N)=O)C(=O)N[C@@H](CO)C(=O)N[C@@H](CCSC)C(=O)N[C@@H](CCCNC(=N)N)C(=O)N[C@@H](CCCNC(=N)N)C(=O)N[C@H](C(=O)N[C@@H](CCC(=O)O)C(=O)N[C@@H](Cc1c[nH]c2ccccc12)C(=O)N[C@@H](CC(C)C)C(=O)N[C@@H](CCCNC(=N)N)C(=O)N[C@@H](CCCCN)C(=O)N[C@@H](CCCCN)C(=O)N[C@@H](CC(C)C)C(=O)N[C@@H](CCC(N)=O)C(=O)N[C@@H](CC(=O)O)C(=O)N[C@H](C(=O)N[C@@H](Cc1cnc[nH]1)C(=O)N[C@@H](CC(N)=O)C(=O)N[C@@H](Cc1ccccc1)C(N)=O)C(C)C)C(C)C (H-AVAEIQLMHQ[hArg]AKWLNSMRRVEWLRKKLQDVHNF-NH2) | 0.34 | 4.2
CC[C@H](C)[C@H](NC(=O)[C@H](CCC(=O)O)NC(=O)[C@H](C)NC(=O)[C@@H](NC(=O)[C@H](C)N)C(C)C)C(=O)N[C@@H](CCC(N)=O)C(=O)N[C@@H](CC(C)C)C(=O)N[C@@H](CCSC)C(=O)N[C@@H](Cc1cnc[nH]1)C(=O)N[C@@H](CCC(N)=O)C(=O)N[C@@H](CCCCNC(=N)N)C(=O)N[C@@H](C)C(=O)N[C@@H](CCCCN)C(=O)N[C@H]1CCC[C@@H]1C(=O)N[C@@H](CC(C)C)C(=O)N[C@@H](CC(N)=O)C(=O)N[C@@H](CO)C(=O)N[C@H]1CCC[C@@H]1C(=O)N[C@@H](CCCNC(=N)N)C(=O)N[C@@H](CCCNC(=N)N)C(=O)N[C@H](C(=O)N[C@H]1CNC[C@@H]1C(=O)N[C@@H](Cc1c[nH]c2ccccc12)C(=O)N[C@@H](CC(C)C)C(=O)N[C@@H](CCCNC(=N)N)C(=O)N[C@H]1CNC[C@@H]1C(=O)N[C@@H](CCCCN)C(=O)N[C@@H](CC(C)C)C(=O)N[C@@H](CCC(N)=O)C(=O)N[C@H]1CCC[C@@H]1C(=O)N[C@H](C(=O)N[C@@H](Cc1cnc[nH]1)C(=O)N[C@@H](CC(N)=O)C(=O)N[C@H]1CCC[C@@H]1C(N)=O)C(C)C)C(C)C (H-AVAEIQLMHQ[hArg]AK[X1]LNS[X1]RRV[X2]WLR[X2]KLQ[X1]VHN-{NH(1S,2S-2-CONH2-cPent)}) | 0.51 | 6.3
CC[C@H](C)[C@H](NC(=O)[C@H](CCC(=O)O)NC(=O)[C@H](C)NC(=O)[C@@H](NC(=O)[C@H](C)N)C(C)C)C(=O)N[C@@H](CCC(N)=O)C(=O)N[C@@H](CC(C)C)C(=O)N[C@@H](CCSC)C(=O)N[C@@H](Cc1cnc[nH]1)C(=O)N[C@@H](CCC(N)=O)C(=O)N[C@@H](CCCCNC(=N)N)C(=O)N[C@@H](C)C(=O)N[C@@H](CCCCN)C(=O)N[C@H](CC(=O)N[C@@H](CC(C)C)C(=O)N[C@@H](CC(N)=O)C(=O)N[C@@H](CO)C(=O)N[C@@H](CCSC)CC(=O)N[C@@H](CCCNC(=N)N)C(=O)N[C@@H](CCCNC(=N)N)C(=O)N[C@H](C(=O)N[C@@H](CCC(=O)O)CC(=O)N[C@@H](Cc1c[nH]c2ccccc12)C(=O)N[C@@H](CC(C)C)C(=O)N[C@@H](CCCNC(=N)N)C(=O)N[C@@H](CCCCN)CC(=O)N[C@@H](CCCCN)C(=O)N[C@@H](CC(C)C)C(=O)N[C@@H](CCC(N)=O)C(=O)N[C@@H](CC(=O)O)CC(=O)N[C@H](C(=O)N[C@@H](Cc1cnc[nH]1)C(=O)N[C@@H](CC(N)=O)C(=O)N[C@H](CC(N)=O)Cc1ccccc1)C(C)C)C(C)C)Cc1c[nH]c2ccccc12 (H-AVAEIQLMHQ[hArg]AK[β3hW]LNS[β3hM]RRV[β3hE]WLR[β3hK]KLQ[β3hD]VHN[β3hF]-NH2) | 0.44 | 5.4
